The values below come from BindingDB's records for doi:10.1021/jm030306r (Merck Research Laboratories, 2003).

The experiment concerns the target Integrin alpha-IIb/beta-3 (Homo sapiens, UniProt P08514+P05106). Nature of the experiment: Inhibition of alphaIIb-beta3 integrin mediated platelet aggregation.

Integrin alpha-IIb/beta-3, sequence (P05106 27-788 limits assumed): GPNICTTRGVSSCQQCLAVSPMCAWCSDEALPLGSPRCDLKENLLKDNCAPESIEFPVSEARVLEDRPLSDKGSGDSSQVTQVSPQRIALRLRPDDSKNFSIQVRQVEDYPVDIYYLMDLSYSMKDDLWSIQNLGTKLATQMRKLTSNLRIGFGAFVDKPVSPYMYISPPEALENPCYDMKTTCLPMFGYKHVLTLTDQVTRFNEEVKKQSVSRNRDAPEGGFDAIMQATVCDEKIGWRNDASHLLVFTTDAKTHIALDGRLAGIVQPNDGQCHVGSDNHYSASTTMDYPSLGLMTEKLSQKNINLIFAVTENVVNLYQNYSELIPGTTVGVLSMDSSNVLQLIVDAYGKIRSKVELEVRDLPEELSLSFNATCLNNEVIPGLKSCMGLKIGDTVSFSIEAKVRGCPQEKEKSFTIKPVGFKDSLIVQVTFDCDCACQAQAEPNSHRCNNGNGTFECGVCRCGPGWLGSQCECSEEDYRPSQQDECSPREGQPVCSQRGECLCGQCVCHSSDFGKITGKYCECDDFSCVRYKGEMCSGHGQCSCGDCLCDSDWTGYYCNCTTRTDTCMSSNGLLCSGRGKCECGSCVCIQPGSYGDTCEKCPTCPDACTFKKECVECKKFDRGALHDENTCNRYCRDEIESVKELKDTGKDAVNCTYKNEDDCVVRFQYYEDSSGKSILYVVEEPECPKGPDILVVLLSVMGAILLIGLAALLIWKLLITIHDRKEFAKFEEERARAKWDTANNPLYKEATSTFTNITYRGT
Integrin alpha-IIb/beta-3, sequence (P08514 32-887 limits assumed): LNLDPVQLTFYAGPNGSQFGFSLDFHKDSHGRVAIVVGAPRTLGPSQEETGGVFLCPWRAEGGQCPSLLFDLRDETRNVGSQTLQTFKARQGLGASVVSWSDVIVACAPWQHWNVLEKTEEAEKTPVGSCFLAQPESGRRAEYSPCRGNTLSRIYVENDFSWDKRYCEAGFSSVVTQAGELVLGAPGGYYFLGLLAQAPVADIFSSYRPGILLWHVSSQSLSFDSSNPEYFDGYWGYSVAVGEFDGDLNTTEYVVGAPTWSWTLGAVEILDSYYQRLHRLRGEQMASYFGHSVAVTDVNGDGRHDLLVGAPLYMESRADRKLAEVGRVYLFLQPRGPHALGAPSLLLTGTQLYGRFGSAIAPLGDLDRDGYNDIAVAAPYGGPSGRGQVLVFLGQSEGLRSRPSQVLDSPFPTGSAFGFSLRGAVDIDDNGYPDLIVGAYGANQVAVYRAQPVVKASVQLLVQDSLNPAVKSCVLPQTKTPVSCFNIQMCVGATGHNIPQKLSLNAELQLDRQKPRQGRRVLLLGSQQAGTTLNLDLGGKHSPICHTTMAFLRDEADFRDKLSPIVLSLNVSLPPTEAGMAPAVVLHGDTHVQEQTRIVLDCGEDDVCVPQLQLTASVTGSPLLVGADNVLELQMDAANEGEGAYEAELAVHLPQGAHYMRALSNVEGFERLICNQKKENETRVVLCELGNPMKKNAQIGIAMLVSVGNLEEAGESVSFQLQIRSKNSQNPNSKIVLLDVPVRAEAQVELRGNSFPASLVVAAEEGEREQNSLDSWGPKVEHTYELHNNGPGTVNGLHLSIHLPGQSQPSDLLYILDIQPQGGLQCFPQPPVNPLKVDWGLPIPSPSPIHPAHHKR
Integrin alpha-IIb/beta-3, sequence (P08514 891-1039 limits assumed): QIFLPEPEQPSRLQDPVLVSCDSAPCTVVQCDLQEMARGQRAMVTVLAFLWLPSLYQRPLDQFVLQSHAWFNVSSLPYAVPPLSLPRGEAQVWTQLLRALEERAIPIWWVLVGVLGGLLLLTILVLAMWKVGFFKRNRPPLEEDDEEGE

Usually IC50 stands for the midpoint of a concentration-inhibition curve. A low value points to inhibition by little substance. Molecule `COc1ccc([C@H](CC(=O)O)N2CCN(CCCc3ccc4c(n3)NCCC4)C2=O)cn1` [(S)-3-(6-Methoxy-pyridin-3-yl)-3-{2-oxo-3-[3-(5,6,7,8-tetrahydro-[1,8]naphthyridin-2-yl)-propyl]-imidazolidin-1-yl}-propionic acid] displayed an IC50 of 34.7 µM. That is a double-digit micromolar value.
